System: patients with HF and LVEF ≥40%
Experiment: […]-HF (Example 2) safety: adverse events, hyperkalemia, serum potassium, eGFR, creatinine, vital signs
Type: in vivo, human
Conditions: number of patients (%); for Any Serious Adverse Events: treatment-emergent; for Elevated Serum Creatinine >[…] / Elevated Serum Creatinine ≥3.0 mg/dl / Elevated Serum Potassium >6.0 mmol/liter / Elevated Serum Potassium >[…] / Reduced Serum Potassium < […] / Systolic Blood Pressure <100 mm Hg: patients with at least one assessment
Text: Safety assessments includes adverse events (AEs), serious adverse events (SAEs), vital signs including heart rate and blood pressure assessment. Safety laboratory tests includes blood chemistry, hematology and urinalysis.
The following safety procedures and variables have been assessed during the study: • SAEs and AEs leading to discontinuation of treatment with study intervention; • Change in body weight from baseline; • Change in serum potassium from baseline; • Number of participants with hyperkalemia (serum potassium >5.5 mmol/L); • Number of participants with severe hyperkalemia (serum potassium >6.0 mmol/L); • Number of participants with hospitalization for hyperkalemia; • Number of participants permanently discontinuing study intervention due to Hyperkalemia; • Change in vital signs (heart rate, SBP and DBP) from baseline; • Change in renal function measured by eGFR (CKD-EPI formula) change from baseline; • Number of participants with hospitalization for worsening of renal function; • Number of participants permanently discontinuing study intervention due to worsening of renal function; and • Changes in laboratory values from baseline.
AEs that occurred or worsened after the first dose of study drug and up to 3 days after the last dose of study drug have been considered as treatment-emergent AEs (TEAEs).
An overall summary of all AEs and treatment emergent AEs (TEAEs) has been generated by treatment group. The number and percentage of patients with TEAEs, post-treatment AEs occurring more than 3 days after last intake of study intervention, treatment-emergent SAEs, treatment-emergent study intervention-related AEs, treatment-emergent study intervention-related SAEs, TEAEs causing premature and permanent discontinuation of study intervention, treatment-emergent non-serious AEs, TEAEs by maximum intensity, drug-related TEAEs by maximum intensity has been summarized by treatment group using Medical Dictionary for Regulatory Activity (MedDRA) terms grouped by Primary System Organ Class and Preferred Term.
The number of patients with treatment-emergent (until 3 days after last study intervention administration) abnormal laboratory values above or below the normal range has been tabulated by the laboratory parameter and treatment group.
Summary statistics including changes from baseline have been calculated by treatment group and visit for all quantitative laboratory parameters, i.e. for hematology, clinical chemistry and urinalysis. Geometric statistics and ratios to baseline has been presented for urinary albumin-to-creatinine ratio (UACR), creatinine, and NT-proBNP, instead of arithmetic statistics with changes from baseline.
The following special safety parameters have been further assessed by displaying the number and percentage of patients with safety events as described below by treatment group, visit, and for any time on treatment (including unscheduled assessments) and until 3 days after last study intervention administration. This has also been performed by stratification factors.

[1] = No SGLT2i Use, finerenone n = 2,601

## CCOc1ncc(C)c2c1[C@H](c1ccc(C#N)cc1OC)C(C(N)=O)=C(C)N2 [finerenone, (4S)-4-(4-cyano-2-methoxyphenyl)-5-ethoxy-2,8-dimethyl-1,4-dihydro-1,6-naphthyridine-3-carboxamide]
[1]
  Any Adverse Events leading to Treatment Discontinuation: 90 (3.5%)
  Hyperkalemia leading to Treatment Discontinuation: 12 (0.5%)
  Investigator Reported Hyperkalemia: 246 (9.5%)
  Investigator Reported Hyperkalemia leading to Hospitalization: 14 (0.5%)
  Any Serious Adverse Events: 995 (38.3%)
No SGLT2i Use
  Elevated Serum Creatinine >[…]: 120 (4.8%)
  Elevated Serum Creatinine ≥3.0 mg/dl: 50 (2.0%)
  Elevated Serum Potassium >6.0 mmol/liter: 76 (3.0%)
  Elevated Serum Potassium >[…]: 358 (14.2%)
  Reduced Serum Potassium < […]: 118 (4.7%)
  Systolic Blood Pressure <100 mm Hg: 435 (17.2%)
SGLT2i Use, finerenone n = 392
  Any Adverse Events leading to Treatment Discontinuation: 6 (1.5%)
  Hyperkalemia leading to Treatment Discontinuation: 1 (0.3%)
  Investigator Reported Hyperkalemia: 43 (11.0%)
  Investigator Reported Hyperkalemia leading to Hospitalization: 2 (0.5%)
  Any Serious Adverse Events: 162 (41.3%)
SGLT2i Use
  Elevated Serum Creatinine >[…]: 21 (5.5%)
  Elevated Serum Creatinine ≥3.0 mg/dl: 7 (1.8%)
  Elevated Serum Potassium >6.0 mmol/liter: 10 (2.6%)
  Elevated Serum Potassium >[…]: 55 (14.5%)
  Reduced Serum Potassium < […]: 9 (2.4%)
  Systolic Blood Pressure <100 mm Hg: 103 (27.0%)

— patent US20250313559A1 (Bayer Aktiengesellschaft, priority 2024, published 2025)
